This is an account of results in the Kinase Knowledgebase extract (Sharma et al. 2016).

What is called IC50 is the concentration that inhibits the measured activity by half. High values mean weaker potency, low ones greater potency.

Test [1] deals with EGFR (UniProt P00533).
Test [2] deals with EGFR (human) (UniProt P00533).
The target of test [3] is EGFR (UniProt P00533). The source holds these as a separate data set.
For test [4], the target named is PIK3CA (human) (UniProt P42336). The test is described as follows: Assessment of Growth Inhibition of U937 Cells.
PIK3CA (human), sequence (P42336 whole entry, looked up): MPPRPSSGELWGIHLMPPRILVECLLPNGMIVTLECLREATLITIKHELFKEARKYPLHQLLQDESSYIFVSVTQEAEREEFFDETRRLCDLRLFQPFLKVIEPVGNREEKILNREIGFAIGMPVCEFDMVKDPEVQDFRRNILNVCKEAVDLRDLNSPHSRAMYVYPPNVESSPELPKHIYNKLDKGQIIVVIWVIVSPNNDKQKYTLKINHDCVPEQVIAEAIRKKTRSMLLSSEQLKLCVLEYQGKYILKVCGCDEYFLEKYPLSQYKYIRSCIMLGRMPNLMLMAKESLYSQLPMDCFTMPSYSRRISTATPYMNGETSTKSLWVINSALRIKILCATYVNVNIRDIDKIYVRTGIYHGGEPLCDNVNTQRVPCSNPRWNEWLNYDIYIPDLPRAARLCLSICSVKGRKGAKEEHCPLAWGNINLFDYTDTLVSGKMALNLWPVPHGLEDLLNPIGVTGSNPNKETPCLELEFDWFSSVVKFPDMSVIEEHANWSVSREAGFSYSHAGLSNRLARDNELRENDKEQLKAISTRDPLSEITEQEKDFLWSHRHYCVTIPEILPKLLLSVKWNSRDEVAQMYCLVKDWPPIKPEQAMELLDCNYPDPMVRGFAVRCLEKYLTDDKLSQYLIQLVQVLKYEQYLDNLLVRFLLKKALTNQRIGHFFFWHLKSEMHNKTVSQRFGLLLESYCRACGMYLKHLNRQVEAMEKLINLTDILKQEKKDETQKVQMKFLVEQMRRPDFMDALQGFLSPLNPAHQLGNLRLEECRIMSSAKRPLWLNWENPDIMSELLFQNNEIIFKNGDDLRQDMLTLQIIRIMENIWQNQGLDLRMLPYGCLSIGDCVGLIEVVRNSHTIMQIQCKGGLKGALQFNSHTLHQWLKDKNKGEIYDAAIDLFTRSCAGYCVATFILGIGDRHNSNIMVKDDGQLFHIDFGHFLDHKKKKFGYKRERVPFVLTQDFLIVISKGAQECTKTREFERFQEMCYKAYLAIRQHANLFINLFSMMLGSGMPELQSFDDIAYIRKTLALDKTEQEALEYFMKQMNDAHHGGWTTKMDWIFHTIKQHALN

EGFR, sequence (P00533 whole entry, looked up): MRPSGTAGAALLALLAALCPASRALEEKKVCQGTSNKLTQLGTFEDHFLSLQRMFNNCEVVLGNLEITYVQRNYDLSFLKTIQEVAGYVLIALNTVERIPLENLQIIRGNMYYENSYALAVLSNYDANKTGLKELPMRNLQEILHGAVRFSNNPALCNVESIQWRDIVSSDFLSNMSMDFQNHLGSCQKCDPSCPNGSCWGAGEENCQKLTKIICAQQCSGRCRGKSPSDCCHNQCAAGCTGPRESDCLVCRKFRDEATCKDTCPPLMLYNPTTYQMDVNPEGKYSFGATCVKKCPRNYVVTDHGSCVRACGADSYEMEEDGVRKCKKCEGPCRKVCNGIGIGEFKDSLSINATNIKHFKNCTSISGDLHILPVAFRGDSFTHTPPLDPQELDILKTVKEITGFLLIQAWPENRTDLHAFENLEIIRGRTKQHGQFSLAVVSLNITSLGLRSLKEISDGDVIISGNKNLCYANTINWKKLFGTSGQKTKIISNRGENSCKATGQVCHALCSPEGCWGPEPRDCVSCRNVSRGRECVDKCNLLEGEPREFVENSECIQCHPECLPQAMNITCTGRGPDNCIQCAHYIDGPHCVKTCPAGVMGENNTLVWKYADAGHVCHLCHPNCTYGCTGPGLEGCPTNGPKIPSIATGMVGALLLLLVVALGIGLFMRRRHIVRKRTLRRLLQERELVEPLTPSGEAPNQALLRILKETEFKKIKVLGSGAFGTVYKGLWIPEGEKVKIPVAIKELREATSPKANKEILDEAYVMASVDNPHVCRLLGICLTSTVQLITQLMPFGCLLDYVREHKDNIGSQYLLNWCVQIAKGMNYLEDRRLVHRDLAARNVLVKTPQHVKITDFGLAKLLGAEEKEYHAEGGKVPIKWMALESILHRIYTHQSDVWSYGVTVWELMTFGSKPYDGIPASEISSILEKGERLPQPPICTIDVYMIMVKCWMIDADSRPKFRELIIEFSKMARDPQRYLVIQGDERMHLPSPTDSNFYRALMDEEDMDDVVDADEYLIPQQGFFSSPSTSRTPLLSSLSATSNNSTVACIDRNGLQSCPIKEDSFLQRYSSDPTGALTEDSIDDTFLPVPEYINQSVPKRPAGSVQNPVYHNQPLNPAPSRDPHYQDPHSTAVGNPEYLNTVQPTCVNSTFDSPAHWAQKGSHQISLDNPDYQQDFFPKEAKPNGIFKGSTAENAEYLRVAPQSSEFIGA
EGFR (human), sequence (P00533 whole entry, looked up): as above

Take `CC1=CCC[C@H]2[C@](C)(CC3=C(O)C(=O)C=C(N[C@H](C(=O)O)C(C)C)C3=O)[C@@H](C)CC[C@]12C`: the IC50 in test [1] amounted to 250 µM.
The compound `CC1=CCC[C@H]2[C@](C)(CC3=C(O)C(=O)C=C(N[C@@H](CO)C(=O)O)C3=O)[C@@H](C)CC[C@]12C` yielded a concentration for half-maximal inhibition (IC50) in test [1] of 170 µM.
In test [2], `Cc1cc(C)c(/C(C(=O)Nc2cccc(N(C)C)c2)=C2\C(=O)Nc3ccccc32)[nH]1` gave an IC50 above 100 µM.
The same measure, in the same setting: the figure for `CCN(CC)CCNC(=O)/C(=C1/C(=O)Nc2ccccc21)c1[nH]c(C)cc1C` is above 100 µM.
In test [1], `CC1=CCC[C@H]2[C@](C)(CC3=C(O)C(=O)C=C(N[C@@H](C(=O)O)[C@@H](C)O)C3=O)[C@@H](C)CC[C@]12C` registered a half-inhibitory concentration (IC50) above 400 µM.
In turn, `NCCC(=O)N[C@@H](Cc1cc(O)c(O)c(SC[C@H](N)C(=O)O)c1)C(=O)O` returned an inhibition in test [3] of 2.5.
Turning to `Cc1cc(C)c(/C(C(=O)Nc2ccc(F)c(Cl)c2)=C2\C(=O)Nc3ccccc32)[nH]1`, in test [2], the half-inhibitory concentration (IC50) is above 100 µM.
With `NCCC(=O)N[C@H](Cc1cc(O)c(O)c(SC[C@H](NC(=O)CC[C@H](N)C(=O)O)C(=O)NCC(=O)O)c1)C(=O)O`, the inhibition in test [3] was determined as 8.2.
In turn, `CCCC=C1SC(=O)N(CCN)C1=O` yielded an IC50 in test [4] above 30 µM.
`CCN(CC)Cc1cc(NC(=O)/C(=C2/C(=O)Nc3ccccc32)c2[nH]c(C)cc2C)ccc1O` registered a half-maximal inhibitory concentration (IC50) in test [2] above 100 µM.
In the case of `CC1=CCC[C@H]2[C@](C)(CC3=C(O)C(=O)C=C(N[C@H](C(=O)O)[C@@H](C)O)C3=O)[C@@H](C)CC[C@]12C`, in test [1], the IC50 is above 400 µM.
For `NCCN1C(=O)c2ccc(Cc3ccccc3)cc2C1=O`, the IC50 in test [4] is above 30 µM.
`NCCC(=O)NCCc1cc(O)c(O)c(SC[C@H](NC(=O)CC[C@H](N)C(=O)O)C(=O)NCC(=O)O)c1` displayed an inhibition in test [3] of 4.9.
Regarding `CC1=CCC[C@H]2[C@](C)(CC3=C(O)C(=O)C=C(NCC(=O)O)C3=O)[C@@H](C)CC[C@]12C`, in test [1], the 50% inhibitory concentration (IC50) was above 400 µM.
`CC1=CCC[C@H]2[C@](C)(CC3=C(O)C(=O)C=C(N[C@H](CO)C(=O)O)C3=O)[C@@H](C)CC[C@]12C` gave an IC50 in test [1] above 400 µM.
In test [3], `N[C@@H](CSc1cc(C[C@H](N)C(=O)O)cc(O)c1O)C(=O)O` had an inhibition of 2.9.
The same measure, in the same setting: the figure for `NCCc1cc(O)c(O)c(SC[C@H](NC(=O)CC[C@H](N)C(=O)O)C(=O)NCC(=O)O)c1` is 1.
In test [1], `CC1=CCC[C@H]2[C@](C)(CC3=C(N[C@@H](CO)C(=O)O)C(=O)C=C(N[C@@H](CO)C(=O)O)C3=O)[C@@H](C)CC[C@]12C` had an IC50 above 400 µM.
Still for that read-out and setting: the figure for `CC1=CCC[C@H]2[C@](C)(CC3=C(O)C(=O)C=C(N[C@@H](C(=O)O)C(C)C)C3=O)[C@@H](C)CC[C@]12C` is 200 µM.
Turning to `C[C@@](Cc1cc(O)c(O)c(SC[C@H](NC(=O)CC[C@H](N)C(=O)O)C(=O)NCC(=O)O)c1)(NC(=O)CCN)C(=O)O`, the inhibition in test [3] was determined as 5.2.
The same measure, in the same setting: the figure for `NCCc1cc(SC[C@H](NC(=O)CC[C@H](N)C(=O)O)C(=O)NCC(=O)O)c(O)c(O)c1SC[C@H](NC(=O)CC[C@H](N)C(=O)O)C(=O)NCC(=O)O` is 7.6.
`O=C(O)/C(=C1/C(=O)Nc2ccccc21)c1ccccc1` registered an IC50 in test [2] above 100 µM.
On the same count and under the same terms, for `Cc1cc(C)c(/C(C(=O)O)=C2\C(=O)Nc3ccccc32)[nH]1` the value was above 100 µM.
`NCCN1C(=O)SC(=CCCc2cccnc2)C1=O` registered an IC50 in test [4] above 30 µM.
`CC1=CCC[C@H]2[C@](C)(CC3=C(N[C@H](C(=O)O)[C@@H](C)O)C(=O)C=C(N[C@H](C(=O)O)[C@@H](C)O)C3=O)[C@@H](C)CC[C@]12C` registered a concentration for half-maximal inhibition (IC50) in test [1] of 200 µM.
`NCCC(=O)N[C@@H](Cc1cc(O)c(O)c(SC[C@H](NC(=O)CC[C@H](N)C(=O)O)C(=O)NCC(=O)O)c1)C(=O)O` registered an inhibition in test [3] of 2.2.
`CS(=O)(=O)Nc1ccc(CCC=C2SC(=O)N(CCN)C2=O)cc1` returned a 50% inhibitory concentration (IC50) in test [4] above 30 µM.
`NCCN1C(=O)SC(=CCCc2ccc([N+](=O)[O-])cc2)C1=O`: in test [4], the IC50 was above 30 µM.
In test [3], `N[C@@H](CCC(=O)N[C@@H](CSc1cc(C[C@H](N)C(=O)O)cc(O)c1O)C(=O)NCC(=O)O)C(=O)O` displayed an inhibition of 4.4.
